Experimental data reported in US9346798B2, “Dihydrobenzoxazine and tetrahydroquinoxaline sodium channel inhibitors” (AMGEN INC., priority 2012, dated 2016).

Assays:
Type in all cases: cell-based
Nav 1.7 [1] = molecular target: T1, Nav 1.7 (Homo sapiens (Human), UniProt Q15858); assay: Nav 1.7 in vitro assay, IonWorks Quattro (IWQ) population patch-clamp; conditions: HEK 293 cells stably transfected with Nav 1.7; 26th pulse to -20 mV
Nav 1.7 [2] = molecular target: T1, Nav 1.7; assay: Nav 1.7 in vitro PX assay, PatchXpress whole cell voltage clamp; conditions: HEK 293 cells stably transfected with human Nav1.7; for IC50: partially inactivated state (20 to 50% inactivation)
Procedure, shortened: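 HEK293 cells stably expressing human Nav1.7, whole-cell voltage clamp at a holding potential giving 20–50% inactivation; currents elicited by 20 msec pulses to −10 mV at 0.1 Hz.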

Nav 1.5 = Nav 1.5 (Homo sapiens (Human), UniProt Q14524); assay: Nav 1.5 in vitro assay, IonWorks Quattro (IWQ) population patch-clamp; conditions: HEK 293 cells stably transfected with Nav 1.5; 26th pulse to -20 mV
Nav 1.5, sequence (Q14524 whole entry): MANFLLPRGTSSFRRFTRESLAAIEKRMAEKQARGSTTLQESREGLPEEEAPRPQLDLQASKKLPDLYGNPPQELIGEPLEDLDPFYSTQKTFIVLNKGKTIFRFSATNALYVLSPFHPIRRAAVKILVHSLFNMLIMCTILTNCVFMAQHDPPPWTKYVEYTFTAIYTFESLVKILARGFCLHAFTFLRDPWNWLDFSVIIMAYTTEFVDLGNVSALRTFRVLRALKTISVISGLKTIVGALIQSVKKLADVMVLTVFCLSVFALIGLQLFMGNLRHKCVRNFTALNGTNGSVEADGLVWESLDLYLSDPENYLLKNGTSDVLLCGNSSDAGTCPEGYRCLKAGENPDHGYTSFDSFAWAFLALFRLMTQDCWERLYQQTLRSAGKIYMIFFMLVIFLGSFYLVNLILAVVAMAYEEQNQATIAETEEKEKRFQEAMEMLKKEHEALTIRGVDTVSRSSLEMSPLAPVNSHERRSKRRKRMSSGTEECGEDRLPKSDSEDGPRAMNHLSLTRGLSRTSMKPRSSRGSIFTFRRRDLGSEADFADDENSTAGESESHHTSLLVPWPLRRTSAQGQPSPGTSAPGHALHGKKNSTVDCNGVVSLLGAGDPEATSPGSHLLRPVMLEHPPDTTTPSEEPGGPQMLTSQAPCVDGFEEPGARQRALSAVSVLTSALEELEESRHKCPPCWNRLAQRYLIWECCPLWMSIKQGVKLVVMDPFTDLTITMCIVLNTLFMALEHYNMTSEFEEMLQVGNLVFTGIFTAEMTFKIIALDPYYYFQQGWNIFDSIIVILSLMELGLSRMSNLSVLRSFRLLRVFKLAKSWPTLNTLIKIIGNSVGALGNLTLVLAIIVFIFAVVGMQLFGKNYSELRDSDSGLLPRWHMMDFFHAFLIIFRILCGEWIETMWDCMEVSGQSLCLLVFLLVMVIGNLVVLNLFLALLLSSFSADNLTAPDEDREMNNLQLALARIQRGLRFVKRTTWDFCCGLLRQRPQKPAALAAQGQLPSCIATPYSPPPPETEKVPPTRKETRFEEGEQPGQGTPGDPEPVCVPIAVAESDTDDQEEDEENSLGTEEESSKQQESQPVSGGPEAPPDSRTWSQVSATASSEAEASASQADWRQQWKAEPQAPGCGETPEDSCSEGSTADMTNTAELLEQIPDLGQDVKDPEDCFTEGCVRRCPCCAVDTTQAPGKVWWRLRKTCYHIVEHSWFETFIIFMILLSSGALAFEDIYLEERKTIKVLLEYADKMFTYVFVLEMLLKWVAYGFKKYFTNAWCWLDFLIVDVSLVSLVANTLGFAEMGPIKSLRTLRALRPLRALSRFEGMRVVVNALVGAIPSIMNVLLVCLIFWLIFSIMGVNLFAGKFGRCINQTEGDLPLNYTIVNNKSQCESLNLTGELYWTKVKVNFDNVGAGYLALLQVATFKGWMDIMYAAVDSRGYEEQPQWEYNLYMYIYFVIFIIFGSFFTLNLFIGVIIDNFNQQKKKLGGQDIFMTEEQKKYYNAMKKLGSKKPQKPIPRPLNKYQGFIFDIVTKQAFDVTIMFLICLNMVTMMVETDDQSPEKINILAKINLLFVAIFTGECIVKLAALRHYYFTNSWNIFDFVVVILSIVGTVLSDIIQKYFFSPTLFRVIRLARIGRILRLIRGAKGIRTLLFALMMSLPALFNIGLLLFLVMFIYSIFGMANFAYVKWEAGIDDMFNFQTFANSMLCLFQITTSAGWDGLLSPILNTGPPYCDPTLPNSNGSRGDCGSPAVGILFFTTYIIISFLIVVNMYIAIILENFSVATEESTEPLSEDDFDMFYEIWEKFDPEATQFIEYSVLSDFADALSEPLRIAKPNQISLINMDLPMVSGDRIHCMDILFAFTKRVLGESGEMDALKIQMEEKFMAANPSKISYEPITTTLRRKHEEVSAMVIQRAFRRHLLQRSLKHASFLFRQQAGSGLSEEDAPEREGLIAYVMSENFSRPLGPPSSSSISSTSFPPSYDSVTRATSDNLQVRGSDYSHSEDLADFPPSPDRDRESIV

T1 sequence (Q15858 whole entry): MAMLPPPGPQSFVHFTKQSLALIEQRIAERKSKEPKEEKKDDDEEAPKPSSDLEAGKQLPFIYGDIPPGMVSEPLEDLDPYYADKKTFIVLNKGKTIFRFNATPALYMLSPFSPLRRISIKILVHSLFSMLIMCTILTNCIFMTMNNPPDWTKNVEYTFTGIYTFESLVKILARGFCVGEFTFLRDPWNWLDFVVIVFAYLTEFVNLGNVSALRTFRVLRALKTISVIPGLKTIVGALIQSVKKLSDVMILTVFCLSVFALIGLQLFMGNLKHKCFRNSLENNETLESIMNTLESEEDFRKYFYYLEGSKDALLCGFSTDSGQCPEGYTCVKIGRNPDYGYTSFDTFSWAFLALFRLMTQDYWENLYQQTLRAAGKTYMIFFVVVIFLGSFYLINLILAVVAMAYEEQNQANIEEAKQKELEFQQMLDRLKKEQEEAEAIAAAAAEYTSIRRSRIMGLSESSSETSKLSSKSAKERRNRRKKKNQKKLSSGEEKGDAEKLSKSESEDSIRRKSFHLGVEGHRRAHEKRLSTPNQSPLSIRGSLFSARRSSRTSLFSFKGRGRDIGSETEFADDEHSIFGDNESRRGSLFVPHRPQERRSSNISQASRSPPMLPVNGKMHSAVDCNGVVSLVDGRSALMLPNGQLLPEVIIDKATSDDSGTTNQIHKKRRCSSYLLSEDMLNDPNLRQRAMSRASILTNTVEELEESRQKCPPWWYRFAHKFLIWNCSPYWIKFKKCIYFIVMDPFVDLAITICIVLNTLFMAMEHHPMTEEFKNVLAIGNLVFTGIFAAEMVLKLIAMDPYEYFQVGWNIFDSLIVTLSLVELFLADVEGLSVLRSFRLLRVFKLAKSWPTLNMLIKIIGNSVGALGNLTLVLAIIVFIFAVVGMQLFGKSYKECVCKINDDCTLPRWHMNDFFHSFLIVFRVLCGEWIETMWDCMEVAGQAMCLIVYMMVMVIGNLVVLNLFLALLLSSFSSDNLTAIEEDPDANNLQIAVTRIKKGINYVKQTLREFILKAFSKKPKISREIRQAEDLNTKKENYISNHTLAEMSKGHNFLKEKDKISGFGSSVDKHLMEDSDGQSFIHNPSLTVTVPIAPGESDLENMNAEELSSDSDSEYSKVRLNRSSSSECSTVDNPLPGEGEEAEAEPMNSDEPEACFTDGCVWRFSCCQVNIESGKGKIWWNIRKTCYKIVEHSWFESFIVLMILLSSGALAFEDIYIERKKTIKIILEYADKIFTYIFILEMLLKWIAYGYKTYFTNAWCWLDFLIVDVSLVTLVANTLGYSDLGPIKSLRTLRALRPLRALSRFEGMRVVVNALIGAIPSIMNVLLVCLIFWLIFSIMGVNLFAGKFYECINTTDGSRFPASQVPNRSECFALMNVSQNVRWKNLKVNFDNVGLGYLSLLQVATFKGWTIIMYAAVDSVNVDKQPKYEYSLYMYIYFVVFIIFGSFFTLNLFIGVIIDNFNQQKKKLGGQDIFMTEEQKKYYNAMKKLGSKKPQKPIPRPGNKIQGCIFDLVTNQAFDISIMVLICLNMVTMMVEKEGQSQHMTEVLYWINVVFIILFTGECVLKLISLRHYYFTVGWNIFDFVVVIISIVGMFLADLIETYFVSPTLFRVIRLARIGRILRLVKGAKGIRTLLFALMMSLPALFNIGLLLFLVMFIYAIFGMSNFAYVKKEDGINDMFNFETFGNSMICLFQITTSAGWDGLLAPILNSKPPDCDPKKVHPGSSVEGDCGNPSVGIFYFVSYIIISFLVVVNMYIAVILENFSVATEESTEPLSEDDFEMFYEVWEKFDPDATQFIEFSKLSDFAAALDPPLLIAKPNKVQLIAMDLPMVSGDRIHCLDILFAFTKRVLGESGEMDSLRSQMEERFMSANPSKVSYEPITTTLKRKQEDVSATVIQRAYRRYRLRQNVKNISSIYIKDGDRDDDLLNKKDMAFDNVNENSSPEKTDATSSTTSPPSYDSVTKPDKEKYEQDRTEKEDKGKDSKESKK

Compound	IC50 (Nav 1.7 [1])	IC50 (Nav 1.7 [2])	IC50 (Nav 1.5)	inhibition at 4.9 µM (Nav 1.7 [2]; HEK293, values marked *, 4.9 μM, read-out: Nav 1.7 PX percent inhibition at 4.9 μM)
O=S(=O)(Nc1nccs1)c1ccc2c(c1)OCCN2c1cccc2cccnc12 [Example 166, 4-(Quinolin-8-Yl)-N-(Thiazol-2-Yl)-3,4-Dihydro-2H-Benzo[B][1,4]Oxazine-7-Sulfonamide 2,2,2-Trifluoroacetate]	683 nM	11100 nM	> 10 µM	
N#Cc1ccc(N2CCOc3cc(S(=O)(=O)Nc4nccs4)ccc32)cc1OC(F)(F)F [Example 167, 4-(4-cyano-3-(trifluoromethoxy)phenyl)-N-(thiazol-2-yl)-3,4-dihydro-2H-benzo[b][1,4]oxazine-7-sulfonamide]	652 nM	6150 nM	> 10 µM	
Cc1ccc(C(C)C)c(N2CCOc3cc(S(=O)(=O)Nc4nccs4)ccc32)c1 [Example 168, 4-(2-Isopropyl-5-Methylphenyl)-N-(Thiazol-2-Yl)-3,4-Dihydro-2H-Benzo[B][1,4]Oxazine-7-Sulfonamide 2,2,2-Trifluoroacetate]	643 nM	3250 nM	> 10 µM	
O=S(=O)(Nc1nccs1)c1ccc2c(c1)OCCN2c1cccc(OC(F)F)c1 [Example 172, 4-(3-(Difluoromethoxy)Phenyl)-N-(Thiazol-2-Yl)-3,4-Dihydro-2H-Benzo[B][1,4]Oxazine-7-Sulfonamide 2,2,2-Trifluoroacetate]	244 nM	936 nM	> 10 µM	
O=S(=O)(Nc1nccs1)c1ccc2c(c1)OCCN2c1cccc(C(F)(F)F)c1 [Example 173, N-(Thiazol-2-Yl)-4-(3-(Trifluoromethyl)Phenyl)-3,4-Dihydro-2H-Benzo[B][1,4]Oxazine-7-Sulfonamide 2,2,2-Trifluoroacetate]	236 nM	1650 nM	> 10 µM	
N#CCc1cccc(N2CCOc3cc(S(=O)(=O)Nc4nccs4)ccc32)c1 [Example 174, 4-(3-(Cyanomethyl)Phenyl)-N-(Thiazol-2-Yl)-3,4-Dihydro-2H-Benzo[B][1,4]Oxazine-7-Sulfonamide 2,2,2-Trifluoroacetate]	211 nM	822 nM	2.01 µM	
O=S(=O)(Nc1nccs1)c1ccc2c(c1)OCCN2c1ccccc1OC(F)F [Example 179, 4-(2-(Difluoromethoxy)Phenyl)-N-(Thiazol-2-Yl)-3,4-Dihydro-2H-Benzo[B][1,4]Oxazine-7-Sulfonamide 2,2,2-Trifluoroacetate]	112 nM	750 nM	5.64 µM	
COc1cc(C#N)ccc1N1CCOc2cc(S(=O)(=O)Nc3nccs3)ccc21 [Example 181, 4-(4-Cyano-2-Methoxyphenyl)-N-(Thiazol-2-Yl)-3,4-Dihydro-2H-Benzo[B][1,4]Oxazine-7-Sulfonamide 2,2,2-Trifluoroacetate]	7.5 nM	175 nM	> 10 µM	
O=S(=O)(Nc1nccs1)c1ccc2c(c1)OCCN2c1ccc(C(F)(F)F)cn1 [Example 183, N-(Thiazol-2-Yl)-4-(5-(Trifluoromethyl)Pyridin-2-Yl)-3,4-Dihydro-2H-Benzo[B][1,4]Oxazine-7-Sulfonamide]	177 nM	3320 nM	> 10 µM	
N#Cc1ccc(C(F)(F)F)cc1N1CCOc2cc(S(=O)(=O)Nc3nccs3)ccc21 [Example 184, 4-(2-Cyano-5-(Trifluoromethyl)Phenyl)-N-(Thiazol-2-Yl)-3,4-Dihydro-2H-Benzo[B][1,4]Oxazine-7-Sulfonamide]	186 nM	392 nM	3.17 µM	
O=S(=O)(Nc1nccs1)c1ccc2c(c1)OCCN2c1cccc(OC(F)(F)F)c1 [Example 185, N-(Thiazol-2-Yl)-4-(3-(Trifluoromethoxy)Phenyl)-3,4-Dihydro-2H-Benzo[B][1,4]Oxazine-7-Sulfonamide]	335 nM	2620 nM	7.62 µM	
COc1ccc(C#N)c(N2CCOc3cc(S(=O)(=O)Nc4nccs4)ccc32)c1 [Example 189, 4-(2-Cyano-5-Methoxyphenyl)-N-(Thiazol-2-Yl)-3,4-Dihydro-2H-Benzo[B][1,4]Oxazine-7-Sulfonamide]	385 nM	3100 nM	7.59 µM	
COc1ccncc1N1CCOc2cc(S(=O)(=O)Nc3nccs3)ccc21 [Example 190, 4-(4-Methoxypyridin-3-Yl)-N-(Thiazol-2-Yl)-3,4-Dihydro-2H-Benzo[B][1,4]Oxazine-7-Sulfonamide]	309 nM	5170 nM	> 10 µM	
O=C(Oc1ccc([N+](=O)[O-])cc1)N1CCOc2cc(S(=O)(=O)Nc3nccs3)ccc21 [Example 197, 4-nitrophenyl 7-(N-(thiazol-2-yl)sulfamoyl)-2H-benzo[b][1,4]oxazine-4(3 H)-carboxylate]	2530 nM		> 10 µM	27.8%
N#Cc1cc(-c2ccccc2F)ccc1N1CCOc2cc(S(=O)(=O)Nc3nccs3)ccc21 [Example 198, 4-(3-cyano-2′-fluoro-[1,1′-biphenyl]-4-yl)-N-(thiazol-2-yl)-3,4-dihydro-2H-benzo[b][1,4]oxazine-7-sulfonamide]	627 nM	339 nM	1.88 µM	
N#Cc1cc(-c2ccc(F)cc2)ccc1N1CCOc2cc(S(=O)(=O)Nc3nccs3)ccc21 [Example 199, 4-(3-Cyano-4′-Fluoro-[1,1′-Biphenyl]-4-Yl)-N-(Thiazol-2-Yl)-3,4-Dihydro-2H-Benzo[B][1,4]Oxazine-7-Sulfonamide]	469 nM	387 nM	1.22 µM	

Continued, in another order:

IC50 (Nav 1.7 [1])	IC50 (Nav 1.7 [2])	Compound	IC50 (Nav 1.5)	inhibition at 4.9 µM (Nav 1.7 [2]; HEK293, values marked *, 4.9 μM, read-out: Nav 1.7 PX percent inhibition at 4.9 μM)
401 nM	2620 nM	O=S(=O)(Nc1nccs1)c1ccc2c(c1)OCCN2c1ccc(Cl)cc1F [Example 170, 4-(4-Chloro-2-Fluorophenyl)-N-(Thiazol-2-Yl)-3,4-Dihydro-2H-Benzo[B][1,4]Oxazine-7-Sulfonamide 2,2,2-Trifluoroacetate]	> 10 µM	
202 nM	1390 nM	N#Cc1cc(N2CCOc3cc(S(=O)(=O)Nc4nccs4)ccc32)ccc1F [Example 175, 4-(3-Cyano-4-Fluorophenyl)-N-(Thiazol-2-Yl)-3,4-Dihydro-2H-Benzo[B][1,4]Oxazine-7-Sulfonamide 2,2,2-Trifluoroacetate]	5.08 µM	
178 nM	1490 nM	N#Cc1cc(F)ccc1N1CCOc2cc(S(=O)(=O)Nc3nccs3)ccc21 [Example 177, 4-(2-cyano-4-fluorophenyl)-N-(thiazol-2-yl)-3,4-dihydro-2H-benzo[b][1,4]oxazine-7-sulfonamide]	> 10 µM	
129 nM	678 nM	Cc1ccc(Cl)cc1N1CCOc2cc(S(=O)(=O)Nc3nccs3)ccc21 [Example 178, 4-(5-Chloro-2-Methylphenyl)-N-(Thiazol-2-Yl)-3,4-Dihydro-2H-Benzo[B][1,4]Oxazine-7-Sulfonamide 2,2,2-Trifluoroacetate]	5.6 µM	
104 nM	850 nM	O=S(=O)(Nc1nccs1)c1ccc2c(c1)OCCN2c1cc(Cl)ccc1Cl [Example 180, 4-(2,5-Dichlorophenyl)-N-(Thiazol-2-Yl)-3,4-Dihydro-2H-Benzo[B][1,4]Oxazine-7-Sulfonamide 2,2,2-Trifluoroacetate]	6.94 µM	
11.5 nM	67.6 nM	COc1cc(Cl)ccc1N1CCOc2cc(S(=O)(=O)Nc3nccs3)ccc21 [Example 186, 4-(4-Chloro-2-Methoxyphenyl)-N-(Thiazol-2-Yl)-3,4-Dihydro-2H-Benzo[B][1,4]Oxazine-7-Sulfonamide]	7.72 µM	
417 nM	7730 nM	N#Cc1c(F)cccc1N1CCOc2cc(S(=O)(=O)Nc3nccs3)ccc21 [Example 187, 4-(2-Cyano-3-Fluorophenyl)-N-(Thiazol-2-Yl)-3,4-Dihydro-2H-Benzo[B][1,4]Oxazine-7-Sulfonamide]	> 10 µM	
140 nM	976 nM	N#Cc1ccc(N2CCOc3cc(S(=O)(=O)Nc4nccs4)ccc32)c(Cl)c1 [Example 191, 4-(2-Chloro-4-Cyanophenyl)-N-(Thiazol-2-Yl)-3,4-Dihydro-2H-Benzo[B][1,4]Oxazine-7-Sulfonamide]	> 10 µM	
52.5 nM	769 nM	N#Cc1ccc(Cl)cc1N1CCOc2cc(S(=O)(=O)Nc3nccs3)ccc21 [Example 192, 4-(5-Chloro-2-Cyanophenyl)-N-(Thiazol-2-Yl)-3,4-Dihydro-2H-Benzo[B][1,4]Oxazine-7-Sulfonamide]	1.61 µM	
103 nM	684 nM	O=S(=O)(Nc1nccs1)c1ccc2c(c1)OCCN2c1ccc(Cl)cc1OC(F)F [Example 193, 4-(4-Chloro-2-(Difluoromethoxy)Phenyl)-N-(Thiazol-2-Yl)-3,4-Dihydro-2H-Benzo[B][1,4]Oxazine-7-Sulfonamide 2,2,2-Trifluoroacetate]	1.56 µM	
163 nM	1370 nM	Cc1ccc(C#N)c(N2CCOc3cc(S(=O)(=O)Nc4nccs4)ccc32)c1 [Example 194, 4-(2-Cyano-5-Methylphenyl)-N-(Thiazol-2-Yl)-3,4-Dihydro-2H-Benzo[B][1,4]Oxazine-7-Sulfonamide]	3.59 µM	
233 nM	1100 nM	Cc1cc(Cl)ccc1N1CCOc2cc(S(=O)(=O)Nc3nccs3)ccc21 [Example 195, 4-(4-Chloro-2-Methylphenyl)-N-(Thiazol-2-Yl)-3,4-Dihydro-2H-Benzo[B][1,4]Oxazine-7-Sulfonamide]	> 10 µM	
396 nM	898 nM	Cc1cc(C(F)(F)F)ccc1N1CCOc2cc(S(=O)(=O)Nc3nccs3)ccc21 [Example 196, 4-(2-Methyl-4-(Trifluoromethyl)Phenyl)-N-(Thiazol-2-Yl)-3,4-Dihydro-2H-Benzo[B][1,4]Oxazine-7-Sulfonamide]	5.7 µM	
